Reference: ChEMBL document CHEMBL1641488, “Computational approach to the identification of novel Aurora-A inhibitors” (Bioorg Med Chem, 2011)

What was measured:
DU-145 [1] = experiment: Cytotoxicity against human DU145 cells after 4 hrs by MTT assay; format: functional; conditions: DU-145, 4 h
HT-29 [2] = experiment: Cytotoxicity against human HT-29 cells after 4 hrs by MTT assay; format: functional; conditions: HT-29, 4 h
DU-145 [3] = experiment: Cytotoxicity against human DU145 cells at 10 uM after 4 hrs by MTT assay; format: functional; conditions: DU-145, 4 h
HT-29 [4] = experiment: Cytotoxicity against human HT-29 cells at 10 uM after 4 hrs by MTT assay; format: functional; conditions: HT-29, 4 h
Aurora kinase A = target: T1, Aurora kinase A (Homo sapiens, UniProt O14965); experiment: Inhibition of human recombinant His-tagged Aurora A kinase expressed in insect cells
T1 sequence (O14965 whole entry): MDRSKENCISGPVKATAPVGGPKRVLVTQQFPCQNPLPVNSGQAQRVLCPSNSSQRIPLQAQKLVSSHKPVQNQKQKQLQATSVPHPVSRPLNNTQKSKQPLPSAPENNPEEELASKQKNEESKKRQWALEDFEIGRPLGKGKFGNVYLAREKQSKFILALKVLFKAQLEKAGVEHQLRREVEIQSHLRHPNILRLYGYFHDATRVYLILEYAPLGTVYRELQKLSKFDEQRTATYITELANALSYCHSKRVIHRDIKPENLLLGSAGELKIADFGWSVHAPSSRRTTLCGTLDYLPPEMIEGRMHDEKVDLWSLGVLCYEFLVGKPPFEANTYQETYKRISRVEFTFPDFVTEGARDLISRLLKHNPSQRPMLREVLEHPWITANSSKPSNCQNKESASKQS

Row | Structure (SMILES) | IC50 (Aurora kinase A; read-out: IC50) [µM] | IC50 (Aurora kinase A) | GI50 (DU-145 [1]) [µM] | GI50 (HT-29 [2]) [µM] | inhibition at 10 µM (DU-145 [3]) [%] | inhibition at 10 µM (HT-29 [4]) [%]
1 | CCOc1ccc(NC(=S)N(CCN(CC)CC)Cc2cc3cc4c(cc3[nH]c2=O)OCCO4)cc1 [ASN03776845] |  | Not Active | 14.1 | 6.33 | 49 | 78
2 | COc1ccc2sc(SCC(=O)Nc3ncc(Br)s3)nc2c1 | > 100 |  | 17 | 2.04 | 49 | 89
3 | Cc1ccc(-c2nnc(Nc3ccc(Oc4ncccc4-c4c[nH]nc4N)cc3)c3ccccc23)cc1 | 0.06 |  |  |  |  | 
4 | CCOc1ccc2cc(CNc3cc(OC)cc(OC)c3)c(=O)[nH]c2c1 [ASN07410292] |  | Not Active | 5.81 | 3.64 | 80 | 88
5 | COc1ccc2cc(C(=O)C3CCC(C(C)C(=O)NCCC4=CCCCC4)CC3)[nH]c2c1 (stereo unspecified) | 86.2 |  | 15.9 | 9.36 | 49 | 68
6 | CCOc1ccc(NC(=O)Cn2c(Nc3ccc(OCC)cc3)nc3c2c(=O)[nH]c(=O)n3C)cc1 | 98.7 |  | > 100 | 7.91 | 57 | 62
7 | CCOc1ccc2nc(Nc3nc(O)c4ccccc4n3)nc(C)c2c1 | 16.7 |  | 36.9 | 29.1 | 80 | 89
8 | CCOc1ccc2nc(NC3=NC(=O)CC(c4ccc(OC)cc4)N3)nc(C)c2c1 (stereo unspecified) |  | Not Active | 4.26 | 7.08 | 84 | 85

Now from value to molecule, other results behind:

Row | IC50 (Aurora kinase A; read-out: IC50) [µM] | IC50 (Aurora kinase A) | Structure (SMILES) | GI50 (DU-145 [1]) [µM] | GI50 (HT-29 [2]) [µM] | inhibition at 10 µM (DU-145 [3]) [%] | inhibition at 10 µM (HT-29 [4]) [%]
9 | > 100 |  | CC(=O)Nc1cccc(NC(=O)C(=O)NCCc2sc(-c3ccc(Cl)cc3)nc2C)c1 | > 100 | 16.5 | 32 | 54
10 | 5.09 |  | COc1ccc(C(=O)Nc2ccccc2C(=O)NC(Cc2ccc(O)cc2)C(=O)Nc2ccc(C)cc2C)cc1 (stereo unspecified) | 2.73 | 5.23 | 90 | 73
11 |  | Not Active | CCCOc1ccc(CNC(=O)c2[nH]c3cc(C)ccc3c2Sc2ccccc2)cc1 | 26 | 5.36 | 34 | 64
12 |  | Not Active | Cc1ccc(Nc2cc(Nc3ccc(NS(=O)(=O)c4ccccc4F)cc3)nc(C)n2)cc1 | 23.4 | 5.12 | 38 | 83
13 | 11.9 |  | Cc1ccc(NC(=O)C(Cc2ccc(O)cc2)NC(=O)c2ccccc2N)cc1 (stereo unspecified) | 3.93 | 9.48 | 87 | 54
14 |  | Not Active | COc1ccc(N(CC(=O)Nc2cc(Cl)ccc2C)S(=O)(=O)c2c(C)n[nH]c2C)cc1 | 5.98 | 3.98 | 74 | 87
15 | > 100 |  | COc1ccc(-c2cc(C(=O)Nc3ccc(C)cc3C)c3c(-c4ccccc4)[nH]nc3n2)cc1OC | 2.06 | 1.65 | 92 | 91
16 | 18.4 |  | COc1ccc(OCC(O)Cn2c(N/N=C/c3ccccc3O)nc3c2c(=O)[nH]c(=O)n3C)cc1 (stereo unspecified) | 27.7 | 7.94 | 23 | 58
